Measurements: patent US10167266B2, “Sodium channel blockers” (Parion Sciences, Inc., priority 2002, dated 2019)
Where “and” joins values, the source holds several entries; their conditions need not be identical. Equal values may be shown once. Where a name gives a salt, the structure may show the parent alone.

Tested on: sodium channel (ENaC), canine bronchial epithelia
Assay: Sodium channel blocking activity: inhibition of short circuit current (ISC) in airway epithelial monolayers in Ussing chambers
Assay type: cell-based
Conditions: for Fold Enhancement Over Amiloride / Fold Amiloride*: potency in canine bronchial epithelia relative to amiloride; for Fold potency relative to amiloride: Example 51
Procedure: One assay used to assess mechanism of action and/or potency of the compounds of the present invention involves the determination of lumenal drug inhibition of airway epithelial sodium currents measured under short circuit current (ISC) using airway epithelial monolayers mounted in Ussing chambers. Cells obtained from freshly excised human, dog, sheep or rodent airways are seeded onto porous 0.4 micron Snapwell™ Inserts (CoStar), cultured at air-liquid interface (ALI) conditions in hormonally defined media, and assayed for sodium transport activity (ISC) while bathed in Krebs Bicarbonate Ringer (KBR) in Using chambers. All test drug additions are to the lumenal bath with half-log dose addition protocols (from 1×10^−11 M to 3×10^−5 M), and the cumulative change in ISC (inhibition) recorded. All drugs are prepared in dimethyl sulfoxide as stock solutions at a concentration of 1×10^−2 M and stored at −20° C. Eight preparations are typically run in parallel; two preparations per run incorporate amiloride and/or benzamil as positive controls. After the maximal concentration (5×10^−5 M) is administered, the lumenal bath is exchanged three times with fresh drug-free KBR solution, and the resultant ISC measured after each wash for approximately 5 minutes in duration. Reversibility is defined as the percent return to the baseline value for sodium current after the third wash. All data from the voltage clamps are collected via a computer interface and analyzed off-line.
Dose-effect relationships for all compounds are considered and analyzed by the Prism 3.0 program. IC50 values, maximal effective concentrations, and reversibility are calculated and compared to amiloride and benzamil as positive controls.
Amiloride was also tested in this assay as a positive control. The results for the compounds of the present invention are reported as fold-enhancement values relative to amiloride.

SMILES: N=C(NCCc1ccc(N)cc1)NC(=O)c1nc(Cl)c(N)nc1N [drawing 47: n=2, 4, NH2, 4-(4-Aminophenyl)ethylamidino-3,5-diamino-6-chloropyrazinecarboxamide hydrochloride]
- Fold Enhancement Over Amiloride (Example 28): 12.7 fold

SMILES: CC1(C)OCC(COc2ccc(CCCCNC(=N)NC(=O)c3nc(Cl)c(N)nc3N)cc2)O1 (stereo not shown) [drawing 48: R=H3CxCH3*, 4-[4-(2,2 Dimethyl-[1,3]dioxolan-4 yl)methyloxyphenyl]butylamidino-3,5-diamino-6-chloropyrazinecarboxamide]
- Fold Enhancement Over Amiloride (Example 29): 91 fold

SMILES: Cl.N=C(NCCCCc1ccc(OCC(O)CO)cc1)NC(=O)c1nc(Cl)c(N)nc1N (stereo not shown) [drawing 48: R=H, 4-[4(2,3-Dihydroxypropyloxyl)phenyl]butylamidino-3,5-diamino-6-chloropyrazinecarboxamide hydrochloride]
- Fold Enhancement Over Amiloride (Example 29): 124 fold
- Fold Amiloride* (Example 47): 51.95 (50) fold
- Fold Amiloride* (Example 48): 51.95 (79) fold
- Fold Amiloride* (Example 50): 51.55 (79) fold

SMILES: CC(=O)OCC(COc1ccc(CCCCNC(=N)NC(=O)c2nc(Cl)c(N)nc2N)cc1)OC(C)=O (stereo not shown) [drawing 48: R=drawing 49, 4-[4-(2,3-Diacetoxypropyloxy)phenyl]butylamidino-3,5-diamino-6-chloropyrazinecarboxamide]
- Fold Enhancement Over Amiloride (Example 29): 36 fold

SMILES: COCCOc1ccc(CCCCNC(=N)NC(=O)c2nc(Cl)c(N)nc2N)cc1.Cl [drawing 50: n=1, 4-[4-(1,4-Dioxapent-1-yl)phenyl]butylamidino-3,5-diamino-6-chloropyrazinecarboxamide hydrochloride]
- Fold Enhancement Over Amiloride (Example 30): 87 fold
- Fold Amiloride* (Example 48): 51.5 ± 14.9 (2) fold

SMILES: COCCOCCOc1ccc(CCCCNC(=N)NC(=O)c2nc(Cl)c(N)nc2N)cc1 [drawing 50: n=2, 4-[4-(1,4,7-Trioxaoct-1-yl)phenyl]-butyl amidino-3,5-diamino-6-chloropyrazinecarboxamide hydrochloride]
- Fold Enhancement Over Amiloride (Example 30): 42 fold
- Fold Amiloride* (Example 48): 76.1 (1) fold

SMILES: COCCOCCOCCOCCOc1ccc(CCCCNC(=N)NC(=O)c2nc(Cl)c(N)nc2N)cc1.Cl [drawing 50: n=4, 4-[4-(1,4,7,10,13-pentoxatetradec-1-yl)phenyl]-butylamidino-3,5-diamino-6-chloropyrazinecarboxamide hydrochloride]
- Fold Enhancement Over Amiloride (Example 30): 28.7 fold

SMILES: COC(=O)C1OC(Oc2ccc(CCCCNC(N)=NC(=O)c3nc(Cl)c(N)nc3N)cc2)C(OC(C)=O)C(OC(C)=O)C1OC(C)=O (stereo not shown) [drawing 51: R^5=40, 4-[4-(Methyl-2,3,4-tri-O-acetyl-glucopyranonuronate-1-O-yl)phenyl]butylamidino-3,5-diamino-6-chloropyrazinecarboxamide]
- Fold Enhancement Over Amiloride (Example 31): 65 fold

SMILES: Cl.N=C(NCCCCc1ccc(CO)cc1)NC(=O)c1nc(Cl)c(N)nc1N [drawing 51: R^5=—CH2OH, 4-(4-Hydroxymethylphenyl)butylamidino-3,5-diamino-6-chloropyrazinecarboxamide hydrochloride]
- Fold potency relative to amiloride: 50.9 ± 19.8 (3)
- Fold Enhancement Over Amiloride (Example 31): 57 fold
- Fold Amiloride* (Example 41): 50.9 ± 19.8 (3) fold
- Fold Amiloride* (Example 44): 50.9 ± 19.8 (3) fold

SMILES: COC(=O)c1ccc(CCCCNC(=N)NC(=O)c2nc(Cl)c(N)nc2N)cc1 [drawing 51: R^5=—CO2CH3, 4-(4-Carboxymethylphenyl)butylamidino-3,5-diamino-6-chloropyrazinecarboxamide hydrochloride]
- Fold Enhancement Over Amiloride (Example 31): 26.5 fold

SMILES: NC(=NC(=O)c1nc(Cl)c(N)nc1N)NCCCCc1ccc(OC2OC(C(=O)O)C(O)C(O)C2O)cc1 (stereo not shown) [drawing 51: R^5=—O-Glucuronide Na^+ Salt, 4-[4-(5-Carboxy-glucopyranonuronate-1-O-yl)-phenyl]butylamidino-3,5-diamino-6-chloropyrazinecarboxamide]
- Fold Enhancement Over Amiloride (Example 31): 11.2 fold

SMILES: NC(=NC(=O)c1nc(Cl)c(N)nc1N)NCCCCc1ccc(OS(=O)(=O)O)cc1 [drawing 51: R^5=—O—SO3H, 4-(4-Sulfatephenyl)butylamidino-3,5-diamino-6-chloropyrazinecarboxamide]
- Fold Enhancement Over Amiloride (Example 31): 27.7 fold

SMILES: N=C(NCCCCc1ccc(N)cc1)NC(=O)c1nc(Cl)c(N)nc1N [drawing 60: R=NH2, N=0, 4-[4-(4-Amino)phenyl)]butylamidino-3,5-diamino-6-chloropyrazinecarboxamide hydrochloride]
- Fold potency relative to amiloride: 32.6 ± 2
- Fold Amiloride* (Example 41): 32.6 ± 2.0 (3) fold
- Fold Amiloride* (Example 43): 32.6 ± 2 (3) fold
- Fold Amiloride* (Example 48): 32.6 ± 2 (3) ^ fold

SMILES: N=C(NCCCCc1ccc(CCO)cc1)NC(=O)c1nc(Cl)c(N)nc1N [drawing 60: R=OH, N=2, 4-(4-(2-Hydroxyethyl)phenyl)butylamidino-3,5-diamino-6-chloropyrazinecarboxamide hydrochloride]
- Fold Amiloride* (Example 41): 79.2 ± 30.6 (4) fold
- Fold Amiloride* (Example 47): 79.2 ± 30.6 (4) fold

SMILES: N=C(NCCCCc1ccc(OCCN)cc1)NC(=O)c1nc(Cl)c(N)nc1N [drawing 61: R=NH2, n=2, 4-[4-(2-aminoethyloxy)phenyl)butylamidino-3,5-diamino-6-chloropyrazinecarboxamide hydrochloride]
- Fold potency relative to amiloride: 56.5 ± 0
- Fold Amiloride* (Example 42, hydrochloride): 60.1 ± 1.3 (2) fold and 56.5 ± 0 (4) ^ fold
- Fold Amiloride* (Example 45): 56.5 ± 24 (4) fold
- Fold Amiloride* (Example 48): 84.9 ± 30.3 (6) fold

SMILES: Cl.NC(=NCCCCc1ccc(OCCO)cc1)NC(=O)c1nc(Cl)c(N)nc1N [drawing 61: R=OH, n=2]
- Fold potency relative to amiloride: 84.9 ± 30.3
- Fold Amiloride* (Example 42): 84.9 ± 30.3 (6) fold
- Fold Amiloride* (Example 47): 84.9 ± 30.3 (6) fold
- Fold Amiloride* (Example 50): 80.3 ± 25.5 (9) fold

SMILES: N=C(NCCCCc1ccc(OCCCO)cc1)NC(=O)c1nc(Cl)c(N)nc1N [drawing 61: R=OH, n=3, 4-[4-(3-Hydroxypropyloxy)phenyl)]butylamidino-3,5-diamino-6-chloropyrazinecarboxamide hydrochloride]
- Fold potency relative to amiloride: 105.2 ± 26.6
- Fold Amiloride* (Example 47): 105.2 ± 26.6 (7) fold

SMILES: Cl.NC(=NCCCCc1ccc(OCCCO)cc1)NC(=O)c1nc(Cl)c(N)nc1N [drawing 61: R=OH, n=3]
- Fold Amiloride* (Example 42): 105.2 ± 26.6 (7) fold

SMILES: N=C(NCCCCc1ccc(C(=O)NCCO)cc1)NC(=O)c1nc(Cl)c(N)nc1N [drawing 62: X=C═O, Y=NH(CH2)2—OH, 4-{4-[N-(3,5-diamino-6-chloropyrazine-2-carbonyl)guanidino]butyl}-N-(2-hydroxyethyl)benzamide hydrochloride]
- Fold Amiloride* (Example 43): 28.5 (1) fold

SMILES: CC(C)(C)OC(=O)NCCOc1ccc(CCCCNC(N)=NC(=O)c2nc(Cl)c(N)nc2N)cc1 [drawing 64: X=NHCO2(CH3)3, [2-(4-{4-[N′-(3,5-Diamino-6-chloropyrazine-2-carbonyl)guanidino]butyl}phenoxy)ethyl]-carbamic acid tert-butyl ester]
- Fold Amiloride* (Example 45): 51.7 ± 10.1 (2) fold
- Fold Amiloride* (Example 49): 51.7 ± 10.1 (2) fold

SMILES: N=C(NCCCCc1ccc(OCC(N)=O)cc1)NC(=O)c1nc(Cl)c(N)nc1N [drawing 65: R=—NH2, 2-{4-[N′-(3,5-diamino-6-chloropyrazine-2-carbonyl)guanidino]-4-butylphenoxy}acetamide hydrochloride]
- Fold Amiloride* (Example 46): 48.2 ± 24.1 (7) fold

SMILES: Cl.Cl.N=C(NCCCCc1ccc(OCCNC[C@H](O)[C@H](O)CO)cc1)NC(=O)c1nc(Cl)c(N)nc1N [drawing 67: O CH2 CH2 NH R^a, N-[4-(4-{2-[(2S,3R)-2,3,4-trihydroxybutylamino]ethoxy}phenyl)butyl]-N′-(3,5-diamino-6-chloropyrazine-2-carbonyl)guanidine dihydrochloride]
- Fold Amiloride* (Example 48): 52.9 ± 14.3 (5) fold

SMILES: Cl.Cl.N=C(NCCCCc1ccc(OCCN(C[C@H](O)[C@H](O)CO)C[C@H](O)[C@H](O)CO)cc1)NC(=O)c1nc(Cl)c(N)nc1N [drawing 67: O CH2 CH2 NR R^a,c (r13), N-[4-(4-{2-[bis-((2S,3R)-2,3,4-trihydroxybutyl)amino]ethoxy}phenyl)butyl]-N′-(3,5-diamino-6-chloropyrazine-2-carbonyl)guanidine dihydrochloride]
- Fold Amiloride* (Example 48): 73.2 ± 49.3 (9) fold
